Test results from patent publication US20210300940A1 (Merck Patent GmbH, priority 2018, published 2021).
Where a name gives a salt, the structure may show the parent alone.

What was measured:
TLR7 = target: T1, TLR7 (Homo sapiens, UniProt Q9NYK1); assay: HEK/293 TLR7 Cell Assay; assay type: cell-based; settings: TLR7/NFKb HEK cells, R848 agonist 10 uM final concentration, Steady-Glo readout; read-out: TLR7 potency
T1 construct: expressed in transfected cells; host or cells: HEK/293 cells carrying TLR7 and an NF-kB luciferase reporter
T1 sequence (Q9NYK1 27-1049): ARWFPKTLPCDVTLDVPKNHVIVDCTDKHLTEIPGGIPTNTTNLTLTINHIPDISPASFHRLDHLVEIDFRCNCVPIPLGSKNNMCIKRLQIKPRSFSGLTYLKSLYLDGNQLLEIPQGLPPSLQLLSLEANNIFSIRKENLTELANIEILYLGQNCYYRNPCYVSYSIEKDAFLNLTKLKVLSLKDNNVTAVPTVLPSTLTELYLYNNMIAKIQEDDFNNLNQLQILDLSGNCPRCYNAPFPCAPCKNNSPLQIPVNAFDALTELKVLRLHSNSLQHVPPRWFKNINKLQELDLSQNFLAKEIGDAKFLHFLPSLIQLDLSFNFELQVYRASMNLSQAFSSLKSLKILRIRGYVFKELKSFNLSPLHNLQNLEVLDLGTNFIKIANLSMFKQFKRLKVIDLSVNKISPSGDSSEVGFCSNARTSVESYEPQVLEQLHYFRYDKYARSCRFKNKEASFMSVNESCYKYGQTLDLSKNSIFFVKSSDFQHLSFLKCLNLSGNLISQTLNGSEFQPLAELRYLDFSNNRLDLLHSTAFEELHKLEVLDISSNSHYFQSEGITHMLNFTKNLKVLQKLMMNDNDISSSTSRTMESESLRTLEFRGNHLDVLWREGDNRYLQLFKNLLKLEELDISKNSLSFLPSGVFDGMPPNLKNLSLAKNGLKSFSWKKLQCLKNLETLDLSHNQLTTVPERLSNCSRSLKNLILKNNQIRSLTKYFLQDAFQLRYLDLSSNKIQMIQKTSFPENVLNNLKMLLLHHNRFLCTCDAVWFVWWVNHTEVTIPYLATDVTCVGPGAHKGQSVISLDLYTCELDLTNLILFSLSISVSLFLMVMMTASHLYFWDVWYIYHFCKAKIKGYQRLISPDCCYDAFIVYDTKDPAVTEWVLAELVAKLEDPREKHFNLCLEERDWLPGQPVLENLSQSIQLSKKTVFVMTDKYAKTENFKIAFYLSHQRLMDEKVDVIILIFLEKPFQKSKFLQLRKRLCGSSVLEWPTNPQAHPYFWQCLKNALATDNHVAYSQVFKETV
Method in brief: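 Compounds added to HEK cells expressing TLR7 with an NFκB reporter 30 min ahead of 10 uM R848 challenge; luciferase signal (Steady-Glo) measured after 5 h, cells having been seeded 24 h earlier at 5000 per well.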

TLR8 = target: T2, TLR8 (Homo sapiens, UniProt Q9NR97); assay: HEK/293 TLR8 Cell Assay; assay type: cell-based; settings: HEK cells, R848 agonist 30 uM final concentration, Steady-Glo readout; read-out: TLR8 potency
T2 construct: expressed in transfected cells; host or cells: HEK/293 reporter cells (NF-kB luciferase)
T2 sequence (Q9NR97 27-1041): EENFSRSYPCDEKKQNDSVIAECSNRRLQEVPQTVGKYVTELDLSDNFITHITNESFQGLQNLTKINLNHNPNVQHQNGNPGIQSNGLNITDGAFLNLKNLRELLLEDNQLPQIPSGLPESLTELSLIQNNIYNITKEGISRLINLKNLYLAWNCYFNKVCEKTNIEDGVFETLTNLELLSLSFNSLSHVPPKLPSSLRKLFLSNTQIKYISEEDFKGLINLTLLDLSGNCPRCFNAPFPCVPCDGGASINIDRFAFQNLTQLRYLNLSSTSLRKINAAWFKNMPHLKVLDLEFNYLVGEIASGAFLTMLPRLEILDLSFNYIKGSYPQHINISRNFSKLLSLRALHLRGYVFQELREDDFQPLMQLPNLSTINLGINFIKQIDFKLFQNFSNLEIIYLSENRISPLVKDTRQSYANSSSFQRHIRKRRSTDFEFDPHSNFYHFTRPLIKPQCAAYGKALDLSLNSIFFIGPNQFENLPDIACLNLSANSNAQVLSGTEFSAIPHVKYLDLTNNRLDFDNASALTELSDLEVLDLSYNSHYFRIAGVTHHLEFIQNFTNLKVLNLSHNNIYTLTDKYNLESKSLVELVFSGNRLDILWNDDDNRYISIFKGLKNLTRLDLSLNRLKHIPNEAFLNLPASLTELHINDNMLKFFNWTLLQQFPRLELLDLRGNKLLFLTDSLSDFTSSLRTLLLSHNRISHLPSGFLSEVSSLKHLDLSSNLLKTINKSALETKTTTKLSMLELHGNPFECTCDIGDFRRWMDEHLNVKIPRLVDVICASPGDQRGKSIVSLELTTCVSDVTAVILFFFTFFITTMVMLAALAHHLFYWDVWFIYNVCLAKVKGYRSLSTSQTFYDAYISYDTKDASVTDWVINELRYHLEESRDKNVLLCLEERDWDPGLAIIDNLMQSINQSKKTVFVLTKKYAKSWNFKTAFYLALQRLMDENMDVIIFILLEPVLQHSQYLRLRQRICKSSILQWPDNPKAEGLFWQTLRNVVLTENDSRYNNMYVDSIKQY

| Compound | IC50 (TLR7) [µM] | IC50 (TLR8) [µM] |
| --- | --- | --- |
| C[C@@H]1CN(c2cnc(C#N)c3ncccc23)C[C@H](CN2CCNCC2)O1 [Example 366, 5-((2R,6S)-2-Methyl-6-piperazin-1-ylmethyl-morpholin-4-yl)-[1,7]naphthyridine-8-carbonitrile] | < 0.075 | < 0.075 |
| C[C@@H]1CN(c2ccc(C#N)c3nccnc23)C[C@H](C(=O)NCCC2CS(=O)(=O)C2)O1 [Example 259, (2R,6R)-4-(8-cyanoquinoxalin-5-yl)-N-[2-(1,1-dioxo-1λ^6-thietan-3-yl)ethyl]-6-methylmorpholine-2-carboxamide] | < 0.075 | > 0.15 |
| N#Cc1ccc(N2C[C@H](NC(=O)[C@@]3(F)CCNC3)C[C@H](C(F)(F)F)C2)c2cccnc12 (single isomer, unassigned) [Example 164] | 0.075 to 0.15 | 0.075 to 0.15 |
| Cc1c(F)cc(N2C[C@H](NC(=O)CC3(O)CCN(C)CC3)C[C@H](C(F)(F)F)C2)c2cccnc12 [Example 68, hydrochloride] | < 0.075 | < 0.075 |
| N#Cc1ncc(N2C[C@@H](C(=O)NC[C@]3(F)CCNC3)O[C@@H](C(F)(F)F)C2)c2cccnc12 (single isomer, unassigned) [Example 319] | < 0.075 | < 0.075 |
| N#Cc1ccc(N2C[C@H](NC(=O)CC3(F)CCNCC3)C[C@H](C(F)(F)F)C2)c2nccnc12 [Example 118, N-[(3R,5S)-1-(8-cyanoquinoxalin-5-yl)-5-(trifluoromethyl)piperidin-3-yl]-2-(4-fluoropiperidin-4-yl)acetamide] | < 0.075 | < 0.075 |
| C[C@@H]1CN(c2cnc(C#N)c3ncccc23)C[C@H](C(=O)NC2CCN(CC3CC3)C2)O1 (stereo partly drawn) [Example 272, (2R,6R)-4-(8-Cyano-[1,7]naphthyridin-5-yl)-6-methyl-morpholine-2-carboxylic acid (1-cyclopropylmethyl-pyrrolidin-3-yl)-amide] | < 0.075 | < 0.075 |
| (2S,6S)-4-(8-cyanoquinolin-5-yl)-N-[(4-fluoro-1-methylpiperidin-4-yl)methyl]-6-(trifluoromethyl)morpholine-2-carboxamide [Example 316] | 0.075 to 0.15 | > 0.15 |
| C[C@H]1C[C@@H](NC(=O)CCN(C)C)CN(c2ccc(C(F)(F)F)c3ncccc23)C1 [Example 186, 3-Dimethylamino-N-[(3R,5S)-5-methyl-1-(8-trifluoromethyl-quinolin-5-yl)-piperidin-3-yl]-propionamide] | < 0.075 | < 0.075 |
| CC(C(=O)N[C@@H]1C[C@H](C(F)(F)F)CN(c2ccc(C#N)c3ncccc23)C1)N1CCN(C)CC1 (single isomer, unassigned) [Example 100] | 0.075 to 0.15 | < 0.075 |
| C[C@@H]1CN(c2cnc(C#N)c3ncccc23)C[C@H](C(=O)NCC2(F)CCN(C)CC2)O1 [Example 348, (2R,6R)-4-(8-Cyano-[1,7]naphthyridin-5-yl)-6-methyl-morpholine-2-carboxylic acid (4-fluoro-1-methyl-piperidin-4-ylmethyl)-amide] | < 0.075 | > 0.15 |
| C[C@@H]1C[C@H](NC(=O)C[C@@H]2[C@@H]3C[C@H]2CN(C)C3)CN(c2ccc(C(F)(F)F)c3ncccc23)C1 [Example 107, N-((3S,5R)-5-methyl-1-(8-(trifluoromethyl)quinolin-5-yl)piperidin-3-yl)-2-((1R,5S,6r)-3-methyl-3-azabicyclo[3.1.1]heptan-6-yl)acetamide] | < 0.075 | < 0.075 |
| C[C@H]1C[C@@H](NCCNS(C)(=O)=O)CN(c2ccc(C#N)c3nccnc23)C1 [Example 41, N-{2-[(3R,5S)-1-(8-Cyano-quinoxalin-5-yl)-5-methyl-piperidin-3-ylamino]-ethyl}-methanesulfonamide] | < 0.075 | < 0.075 |
| C[C@@H]1CN(c2ccc(C(F)(F)F)c3ncccc23)C[C@H](CN2CCC(C(C)(C)O)C2)O1 (stereo partly drawn) [Example 331, 2-{1-[(2S,6R)-6-Methyl-4-(8-trifluoromethyl-quinolin-5-yl)-morpholin-2-ylmethyl]-pyrrolidin-3-yl}-propan-2-ol] | < 0.075 | 0.075 to 0.15 |
| C[C@@H]1CN(c2ccc(C#N)c3nccnc23)C[C@H](C(=O)NC[C@H]2COCCN2)O1 (single isomer, unassigned) [Example 296] | < 0.075 | < 0.075 |
| C[C@H]1C[C@@H](NC(=O)[C@H]2CCCN2)CN(c2ccc(C(F)(F)F)c3ncccc23)C1 [Example 177, (R)-Pyrrolidine-2-carboxylic acid [(3R,5S)-5-methyl-1-(8-trifluoromethyl-quinolin-5-yl)-piperidin-3-yl]-amide] | 0.075 to 0.15 | < 0.075 |
| C[C@H]1C[C@@H](NC(=O)CC2(O)CCN(C)CC2)CN(c2ccc(C(F)(F)F)c3ncccc23)C1 [Example 84, 2-(4-hydroxy-1-methylpiperidin-4-yl)-N-[(3R,5S)-5-methyl-1-[8-(trifluoromethyl)quinolin-5-yl]piperidin-3-yl]acetamide] | < 0.075 | < 0.075 |
| C[C@@H]1CN(c2cnc(C(F)(F)F)c3ncccc23)C[C@H](CO)O1 [Example 383, [(2R,6R)-6-Methyl-4-(8-trifluoromethyl-[1,7]naphthyridin-5-yl)-morpholin-2-yl]-methanol] | > 0.15 | > 0.15 |
| C[C@H]1C[C@@H](NC(=O)[C@@H](N)CC(N)=O)CN(c2ccc(C(F)(F)F)c3nccnc23)C1 [Example 127, (2S)-2-amino-N-[(3R,5S)-5-methyl-1-[8-(trifluoromethyl)quinoxalin-5-yl]piperidin-3-yl]butanediamide] | 0.075 to 0.15 | < 0.075 |
| C[C@@H]1CN(c2ccc(C#N)c3nccnc23)C[C@H](CNC(=O)[C@@H](C)O)O1 (single isomer, unassigned) [Example 340] | > 0.15 | < 0.075 |
| CN1CCN(CC(=O)N[C@@H]2C[C@H](C(F)(F)F)CN(c3ccc(C(F)(F)F)c4ncccc34)C2)CC1 [Example 66, 2-(4-methylpiperazin-1-yl)-N-[(3R,5S)-5-(trifluoromethyl)-1-[8-(trifluoromethyl)quinolin-5-yl]piperidin-3-yl]acetamide] | < 0.075 | < 0.075 |
| C[C@@H]1CN(c2ccc(C#N)c3nccnc23)C[C@H](C(=O)NC2CCC(=O)NC2=O)O1 (stereo partly drawn) [Example 236, (2R,6R)-4-(8-Cyano-quinoxalin-5-yl)-6-methyl-morpholine-2-carboxylic acid (2,6-dioxo-piperidin-3-yl)-amide] | 0.075 to 0.15 | 0.075 to 0.15 |
| N#Cc1ncc(N2C[C@@H](C(F)(F)F)O[C@@H](C(=O)NCC3(F)CCNCC3)C2)c2cccnc12 (single isomer, unassigned) [Example 317] | < 0.075 | 0.075 to 0.15 |
